In brackets after ≈: the same amount, converted by molar mass.
Assays:
Tribolium confusum [1] = assay: Contact test, mixtures of Ia and Ib of various ratio (Table 13); type: in vivo, flour beetle (Tribolium confusum); details: Tribolium confusum, 24 h
Experimental: (§1) The active ingredient is dissolved in a 1:2 mixture of oil and acetone; filter paper discs (Whatman No. 1, diameter 9 cm) are impregnated with the solutions of the corresponding stereoisomers and enantiomer-pairs, respectively. The acetone is allowed to evaporate, whereupon the insects are exposed to filter papers discs placed in Petri-dishes. Three parallels are used on each dose and 15 insects are placed into each Petri-dish. The percental mortality is determined after 24 hours. The corrected percent mortality is calculated by means of the Abbot Formula.
In Table 13 the insecticidal effect of mixtures of enantiomer-pairs Ia and Ib of various ratio is shown on flour beetle (Tribolium confusum). The test method is that disclosed in Example 43.

Musca domestica [2] = assay: Comparative contact test (Table 15); type: in vivo, house fly (Musca domestica), imago; details: 24 h
Experimental: as §1
(§2) The comparative test of Ia, Ib and a 40:60 mixture of Ia:Ib is carried out on bean weevil (Acanthoscelides obtectus), flour-beetle, (Tribolium confusum), house fly (Musca domestica) and sheep maggot fly (Lucillia sericata). The test method described is Example 41.

tribolium confusum [3] = assay: Comparative contact test (Table 15); type: in vivo, flour-beetle (Tribolium confusum), imago; details: 24 h
Experimental: as §1, §2

T. confusum = assay: Activity as function of time, toxic symptoms (Table 16); type: in vivo, flour beetle (T. confusum), imagos
Outline: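 T. confusum imagos exposed in Petri dishes to filter-paper discs impregnated with isomer solutions in 1:2 oil/acetone, acetone evaporated; 3 replicates of 15 insects per dose. Insects lying on their backs counted at successive time points, expressed as percent.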

Hyphantria cunea = assay: Topical test on fall webworm (Table 18); type: in vivo, fall wetworm (Hyphantria cunea), L7-L8 larvae; details: Hyphantria cunea, topical, 24 h
Experimental: The active ingredients are dissolved in 2-ethoxy-ethanol and the solutions are applied in the form of 0.2 μl droplets onto the back of fall wetworm (Hyphantria cunea) of L7 -L8 larvae stage. The treated worms are placed on strawberry leaves in Petri-dishes. The test is carried out by using […], 2 parallels and 10 insects for each dose. The killed worms are counted after 24 hours and the percental mortality rate is calculated.

Tetranychus urticae = assay: Potter Tower spray on mite-infested leaves (Table 19); type: in vivo, mites (Tetranychus urticae); details: Tetranychus urticae, 24 h, mortality after 24 hours; read-out: approx. LD50
Experimental: Leaves already infested with mites (Tetranychus urticae) were sprayed under Potter Tower. Mortality after 24 hours on the treated leaves was compared with the control.

Acanthoscelides obtectus = assay: Comparative contact test (Table 15); type: in vivo, bean weevil (Acanthoscelides obtectus), imago
Experimental: as §1, §2

Musca domestica [4] = assay: Filter paper disc contact test (Table 11); type: in vivo, house fly (Musca domestica); details: Musca domestica, 24 h
Outline: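 Stereoisomers in 1:2 oil/acetone were applied to 9 cm filter paper discs, the acetone evaporated, and discs placed in Petri dishes with 15 flies each, three replicates per dose. Mortality was scored at 24 h and corrected by Abbott's formula.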

Colorado potato beetle = assay: Topical test on Colorado potato beetle (Table 14); type: in vivo, Colorado potato beetle (Leptinotersa decemlineata), imago; details: Leptinotarsa decemlineata, topical
Experimental: In Table 14 the activity on Colorado potato beetle is shown.
The test materials are dissolved in 2-ethoxyethanol (Cellosolve). One 0.3 μl drop of the solution is applied to the abdominal sterna of the imago. The treatment is carried out by using 2 parallels and 10 insects for each dose. […]

Lucillia sericata = assay: Comparative contact test (Table 15); type: in vivo, sheep maggot fly (Lucillia sericata), imago; design: key: % mortality after 24 h, Abbott-corrected; details: 1440 min
Experimental: as §1, §2

house fly = assay: Topical LD50 on house fly (mg/kg); type: in vivo; details: Musca domestica, approximate, topically
Description: The said selectivity index of the enantiomer-pair Ia amounts to 50/0.45=111.
In addition to the synergistic effect the composition of the present invention has a number of further advantages too and for this reason it is an outstanding product. It is very important that the compositions of the present invention are less toxical towards mammals than the hitherto known compositions of similar efficiency. […] The said selectivity index of Ia amounts to 50/0.45=111.

Tribolium confusum [5] = assay: Contact test on Tribolium confusum (Table 12); type: in vivo
Outline: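 Compound in 1:2 oil/acetone impregnated onto 9 cm filter paper discs; after acetone evaporation, 15 insects per Petri dish exposed by contact, three replicates per dose. Mortality read at 24 hours and corrected by Abbott's formula.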

CC1(C)[C@H](C=C(Cl)Cl)[C@H]1C(=O)O[C@H](C#N)c1cccc(Oc2ccccc2)c1 (relative stereo) [Ib]
mortality at 60 µg/disc (Tribolium confusum [1]; 0.06 mg/disc): 46%
mortality at 250 µg/disc (Tribolium confusum [1]; 0.25 mg/disc): 100%
mortality at 20 µg/disc (Tribolium confusum [1]; 0.02 mg/disc): 8%
mortality at 1000 µg/disc (Tribolium confusum [1]; 1.00 mg/disc): 100%
mortality at 20 µg/disc (Musca domestica [2]; 0.02 mg/disc): 0%
mortality at 70 µg/disc (Musca domestica [2]; 0.07 mg/disc): 18%
mortality at 220 µg/disc (Musca domestica [2]; 0.22 mg/disc): 67%
mortality at 670 µg/disc (Musca domestica [2]; 0.67 mg/disc): 100%
mortality at 2000 µg/disc (Musca domestica [2]; 2.0 mg/disc): 100%
mortality at 6000 µg/disc (Musca domestica [2]; 6.0 mg/disc): 100%
mortality at 20 µg/disc (tribolium confusum [3]; 0.02 mg/disc): 14%
mortality at 70 µg/disc (tribolium confusum [3]; 0.07 mg/disc): 73%
mortality at 220 µg/disc (tribolium confusum [3]; 0.22 mg/disc): 100%
mortality at 670 µg/disc (tribolium confusum [3]; 0.67 mg/disc): 100%
mortality at 2000 µg/disc (tribolium confusum [3]; 2.0 mg/disc): 100%
mortality at 6000 µg/disc (tribolium confusum [3]; 6.0 mg/disc): 100%
% of insects showing toxic symptoms (T. confusum; 30 minutes): 0%
% of insects showing toxic symptoms (T. confusum; 30 minutes, 0.33 mg/disc): 0%
% of insects showing toxic symptoms (T. confusum; 30 minutes, 1.00 mg/disc): 47%
% of insects showing toxic symptoms (T. confusum; 30 minutes, 3.00 mg/disc): 61%
% of insects showing toxic symptoms (T. confusum; 60 minutes): 0%
% of insects showing toxic symptoms (T. confusum; 60 minutes, 0.33 mg/disc): 21%
% of insects showing toxic symptoms (T. confusum; 60 minutes, 1.00 mg/disc): 82%
% of insects showing toxic symptoms (T. confusum; 60 minutes, 3.00 mg/disc): 100%
% of insects showing toxic symptoms (T. confusum; 120 minutes): 28%
% of insects showing toxic symptoms (T. confusum; 120 minutes, 0.33 mg/disc): 100%
% of insects showing toxic symptoms (T. confusum; 120 minutes, 1.00 mg/disc): 100%
% of insects showing toxic symptoms (T. confusum; 120 minutes, 3.00 mg/disc): 100%
% of insects showing toxic symptoms (T. confusum; 180 minutes): 56%
% of insects showing toxic symptoms (T. confusum; 180 minutes, 0.33 mg/disc): 100%
% of insects showing toxic symptoms (T. confusum; 180 minutes, 1.00 mg/disc): 100%
% of insects showing toxic symptoms (T. confusum; 180 minutes, 3.00 mg/disc): 100%
mortality at 0.023 µg/disc (Hyphantria cunea; 0.023 (μg/disc)): 10%
mortality at 0.047 µg/disc (Hyphantria cunea; 0.047 (μg/disc)): 15%
mortality at 0.094 µg/disc (Hyphantria cunea; 0.094 (μg/disc)): 30%
mortality at 0.188 µg/disc (Hyphantria cunea; 0.188 (μg/disc)): 70%
mortality at 0.375 µg/disc (Hyphantria cunea; 0.375 (μg/disc)): 80%
LC50 (Tetranychus urticae): ~0.34 µg/mL (≈ 0.817 µM)
mortality at 20 µg/disc (Acanthoscelides obtectus; Acanthoscelides obtectus, 24 h, 0.02 mg/disc): 32%
mortality at 70 µg/disc (Acanthoscelides obtectus; Acanthoscelides obtectus, 24 h, 0.07 mg/disc): 55%
mortality at 220 µg/disc (Acanthoscelides obtectus; Acanthoscelides obtectus, 24 h, 0.22 mg/disc): 87%
mortality at 670 µg/disc (Acanthoscelides obtectus; Acanthoscelides obtectus, 24 h, 0.67 mg/disc): 100%
mortality at 2000 µg/disc (Acanthoscelides obtectus; Acanthoscelides obtectus, 24 h, 2.0 mg/disc): 100%
mortality at 6000 µg/disc (Acanthoscelides obtectus; Acanthoscelides obtectus, 24 h, 6.0 mg/disc): 100%
comparative activity (Acanthoscelides obtectus; Example 47, further insect species, Ib versus Ia): more active than Ia
mortality at 40 µg/disc (Musca domestica [4]; 0.04 mg/disc): 32%
mortality at 110 µg/disc (Musca domestica [4]; 0.11 mg/disc): 62%
mortality at 330 µg/disc (Musca domestica [4]; 0.33 mg/disc): 95%
mortality at 1000 µg/disc (Musca domestica [4]; 1.00 mg/disc): 100%
mortality at 3000 µg/disc (Musca domestica [4]; 3.00 mg/disc): 100%
mortality at 0.05 µg/beetle (Colorado potato beetle; read-out: 24 hours' mortality %, 0.05 μg/beetle): 0%
mortality at 0.1 µg/beetle (Colorado potato beetle; read-out: 24 hours' mortality %, 0.10 μg/beetle): 25%
mortality at 0.2 µg/beetle (Colorado potato beetle; read-out: 24 hours' mortality %, 0.20 μg/beetle): 75%
mortality at 0.4 µg/beetle (Colorado potato beetle; read-out: 24 hours' mortality %, 0.40 μg/beetle): 85%
mortality (Lucillia sericata; 0.02 mg/disc): 22
mortality (Lucillia sericata; 0.07 mg/disc): 55
mortality (Lucillia sericata; 0.22 mg/disc): 70
mortality (Lucillia sericata; 0.67 mg/disc): 75
mortality (Lucillia sericata; 2.0 mg/disc): 100
mortality (Lucillia sericata; 6.0 mg/disc): 100
LD50 (house fly): ~0.64 mg/kg
mortality at 110 µg/disc (Tribolium confusum [5]; Tribolium confusum, 24 h, 0.11 mg/disc): 64%
mortality at 330 µg/disc (Tribolium confusum [5]; Tribolium confusum, 24 h, 0.33 mg/disc): 89%
mortality at 1000 µg/disc (Tribolium confusum [5]; Tribolium confusum, 24 h, 1.00 mg/disc): 100%
mortality at 3000 µg/disc (Tribolium confusum [5]; Tribolium confusum, 24 h, 3.00 mg/disc): 100%
synergism between the members of the enantiomer-pair (Tribolium confusum [5]; in vivo): synergism observed

From patent publication US5110976A, “Insecticidal composition comprising more than one active ingredient” (priority 1985, dated 1992)
